Data reported in patent US5298491A, “Derivatives of endogenous mediators, their salts, method of preparation, applications and compositions in which they are present” (priority 1990, dated 1994).

How the values were obtained:
5-HT1A sites [1] = experiment: Labelling of rat hippocampus (autoradiography); format: binding; conditions: 0.03 nM
Description: (§1) The protocol for preparing the brain sections is common to all the studies which follow. The animals are decapitated after anaesthesia with chloral hydrate (400 mg/kg of gross weight). The brains are quickly removed from the skull and frozen by immersion in isopentane cooled by liquid nitrogen. 20 μm sections, prepared in a cryostat at -20° C., are mounted on gelatin-coated slides and stored at -20° C.
(§2) The sections are preincubated for 1 hour at 4° C. in a Krebs solution (NaCl 118 mM; KCl 4.8 mm; CaCl2 1.2 mM; MgCl2 1.2 mM; Tris-HCl 15 mM, pH 7.4) in order to remove the endogenous ligands.
(§3) The incubations take place for 60 minutes at 20° C. in a Krebs solution containing 10 μM pargyline, 5.7.10^-4 M ascorbic acid, 10 g/l of bovine serum albumin (fraction V, Sigma) and 0.03 nmol/l of the derivative S--CM-[^125 I]--R. The non-specific binding is determined on homothetic sections under the same conditions, but in the presence of 10^-5 M 5-HT.
(§4) After incubation, the sections are rinsed twice for 1 min in distilled water and dried by a stream of hot air. The sections are affixed to a kilm (Amersham) for one week in the presence of standards ([^125 I] microscale, Amersham). The films are developed for 6 min with Kodak D19, rinsed and fixed with AL4 (Kodak). Quantitative analysis of the autoradiographs is performed with an image analysis system (Segu et al., op. cit.). […]

5-HT1C sites [2] = experiment: Labelling of rat choroid plexus (autoradiography); format: binding; conditions: 0.03 nM
Description: as §1, §2, §3, §4

5-HT1A sites [3] = experiment: Labelling of guinea-pig hippocampus (autoradiography); format: binding; conditions: 0.03 nM
Description: as §1, §2, §3, §4

rat central receptors = experiment: Labelling of rat brain sections with iodinated derivatives (autoradiography); conditions: 0.03 nM iodinated derivative; non-specific binding with 10^-5 M 5-HT
Description: as §1

5-HT1D sites [4] = experiment: Labelling of 5-HT1D structures of guinea-pig brain sections (autoradiography); format: binding
Description: as §1, §2, §3
(§5) After incubation, the sections are rinsed twice for 1 min in distilled water and dried by a stream of hot air. The sections are affixed to a kilm (Amersham) for one week in the presence of standards ([^125 I] microscale, Amersham). The films are developed for 6 min with Kodak D19, rinsed and fixed with AL4 (Kodak). Quantitative analysis of the autoradiographs is performed with an image analysis system (Segu et al., op. cit.).
In the central nervous system of the guinea-pig, the anatomical structures containing sites of the 5-HT1A type and the pharmacology of these sites are the same as in the rat. By contrast, the pharmacology of the sites contained in the substantia nigra of the guinea-pig is different from that of the sites of the same structure in the rat (Heuring and Peroutka, J. Neurosci., 7, 1987, p. 894-903). These sites are therefore denotedas 5-HT1D.

5-HT1D receptors = experiment: Labelling of locus niger in postmortem human brain sections (autoradiography); format: binding
Description: (§6) The sections are preincubated for 1 h at 4° C. in a Krebs solution (mM: NaCl, 118; KCl, 4.5; CaCl2, 1.2; MgCl2, […]; Tris, 15; pH 7.4) in order to remove the endogenous ligands. They are then incubated at 20° C. for 60 minutes in a solution containing 10^-5 M pargyline, 57 mM ascorbic acid, 10 g/l of bovine serum albumin and 0.02 nM S--CM-G[^125 I]TNH2, alone or in the presence of increasing concentrations of serotonin. Some of the sections are incubated under identical conditions except that the radioactive probe is replaced either with 2 nM [^3 H]5-HT, or with 2 nM [^3 H]5-HT in the presence of 100 nM 8-hydroxy-2-[di-N-propylamino]tetralin (8-OH-DPAT) and 100 nM mesulergin, or with 1 nM [^3 H]8-OH-DPAT. After rinsing 2 x for 1 minute in distilled water, the sections are dried.
(§7) The slides are affixed to a tritium-sensitive film for 8 days. The film is developed for 6 minutes in D19, rinsed and fixed. The autoradiographs are quantified with a video system for image analysis (Segu et al., 1990).
(§8) a) Postmortem human brains are stored at -20° C. 10 μm sections are prepared from blocks containing either the locus niger or the Ammon's horn. The sections are treated as indicated in 4. for the monkey brain sections.
(§9) The locus niger contains virtually exclusively binding sites of the 5-HT1D type, whereas the Ammon's horn is composed predominantly of sites of the 5-HT1A type.

5-HT1A sites [5] = experiment: Labelling of Ammon's horn in postmortem human brain sections (autoradiography); format: binding; conditions: treated as monkey sections
Description: as §6, §7, §8, §9

serotonin receptors = experiment: Affinity and selectivity for serotonin receptor sites; format: binding
5-HT1B sites = 5-HT1B sites (Rattus norvegicus, UniProt P28564); experiment: Labelling of 5-HT1B structures of rat brain sections (autoradiography); format: binding
5-HT1B sites, sequence (P28564 whole entry): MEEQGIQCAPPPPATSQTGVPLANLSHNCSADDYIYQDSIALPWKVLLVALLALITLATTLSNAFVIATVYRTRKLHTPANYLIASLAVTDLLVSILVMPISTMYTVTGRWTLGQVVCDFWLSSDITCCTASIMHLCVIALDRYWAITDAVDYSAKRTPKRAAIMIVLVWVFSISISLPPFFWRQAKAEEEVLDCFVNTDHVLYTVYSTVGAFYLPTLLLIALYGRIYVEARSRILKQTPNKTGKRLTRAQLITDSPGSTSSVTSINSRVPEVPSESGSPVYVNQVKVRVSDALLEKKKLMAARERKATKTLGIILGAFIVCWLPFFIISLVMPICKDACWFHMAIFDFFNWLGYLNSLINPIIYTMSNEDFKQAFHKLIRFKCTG
Description: as §1, §2, §3, §5
This last structure is known for containing almost exclusively binding sites of the 5-HT1A type, whereas the others contain sites of the 5-HT1B type (Hoyer et al., Eur. J. Pharmacol., 118, 1985, P. 1-12). In the anterior region, the striatum (ST) is labelled: it contains especially 5-HT1B sites; the choroid plexus (Px), which contains 5-HT1c sites, is not labelled.

[6] = Toxicity observed at the injected dose; format: in vivo, mice and guinea-pigs
Description: (§10) 2 mice and 2 guinea-pigs are deeply anaesthetized with chloral hydrate (intraperitoneal injection of 0.12 ml of a 35% solution per 100 g of body weight).
(§11) The mice and guinea-pigs receive intracardiac injections of 200 μl and 1.5 ml, respectively, of S--CM-G[^125 I]TNH2.
(§12) After 10 minutes, the animals, still under deep anaesthesia, are decapitated and the brains are frozen and stored as indicated in Example 1.

[7] = Distribution of labelling in vivo with a gamma camera after intravenous injection; conditions: mice
Description: 2. Study of the distribution of the binding of the derivative S--CM-G[125]TNH2 by visualization in vivo with a gamma camera
The animals (mice) are anaesthetized and injected intravenously with the derivative S--CM-G[^125 I]TNH2. […] In this latter zone, the labelling is retained for 15 to 20 minutes before slowly disappearing.

[8] = Passage across the blood-brain barrier after intracardiac injection (brain autoradiography); format: in vivo, mice and guinea-pigs; conditions: 10 minutes; for passage across the blood-brain barrier: intracardiac injection, conclusion
Description: as §10, §11, §12
Sections are prepared and autoradiography is carried out as described in Example 1.

[9] = system: other receptors which are not of the 5-HT type (such as β-adrenergic receptors); experiment: Binding to receptors not of the 5-HT type
5-HT1D sites [10] = target: T1, 5-HT1D sites (Macaca mulatta, UniProt F6SFA9); experiment: Labelling of substantia nigra in monkey brain sections (autoradiography); format: binding, monkey (Macacca mulatta n.); conditions: for binding to / marker for 5-HT1D sites: conclusion
T1 construct: The right hemisphere is cut out and frozen by isopentane cooled in liquid nitrogen; from tissue; host or cells: rhesus monkey brain sections (right hemisphere, 10 μm, frozen), substantia nigra
T1 sequence (F6SFA9 1-390): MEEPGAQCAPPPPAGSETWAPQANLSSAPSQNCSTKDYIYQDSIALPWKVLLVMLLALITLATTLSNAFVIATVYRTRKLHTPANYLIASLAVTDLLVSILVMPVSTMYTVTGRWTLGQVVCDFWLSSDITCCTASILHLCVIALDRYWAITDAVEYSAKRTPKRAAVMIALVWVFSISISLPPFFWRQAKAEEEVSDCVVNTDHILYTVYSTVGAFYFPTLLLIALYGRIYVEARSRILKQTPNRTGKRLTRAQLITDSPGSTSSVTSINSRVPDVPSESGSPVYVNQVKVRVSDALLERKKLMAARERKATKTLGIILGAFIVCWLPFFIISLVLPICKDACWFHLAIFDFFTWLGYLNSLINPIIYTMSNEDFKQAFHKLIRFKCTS
Description: A male monkey (Macacca mulatta n.) weighing 8 kg was sacrificed by means of an overdose of barbiturates and exsanguination. […] The right hemisphere is cut out and frozen by isopentane cooled in liquid nitrogen. The block is stored at -20° C. […] They are stored at -20° C. until required.
Some of the sections are incubated under identical conditions except that the radioactive probe is replaced either with 2 nM [^3 H]5-HT, or with 2 nM [^3 H]5-HT in the presence of 100 nM 8-hydroxy-2-[di-N-propylamino]tetralin (8-OH-DPAT) and 100 nM mesulergin, or with 1 nM [^3 H]8-OH-DPAT. After rinsing 2 x for 1 minute in distilled water, the sections are dried.
The slides are affixed to a tritium-sensitive film for 8 days. The film is developed for 6 minutes in D19, rinsed and fixed.

5-HT1C sites [11] = experiment: Labelling of guinea-pig choroid plexus (autoradiography); format: binding; conditions: 0.03 nM
Description: as §1, §2, §3, §5

## NCCc1c[nH]c2ccc(OCC(=O)NCC(=O)N[C@@H](Cc3ccc(O)c([125I])c3)C(N)=O)cc12 [S--CM-G[^125 I]TNH2]
5-HT1A sites [1]
  labelling of the hippocampus: no labelling
5-HT1A sites [1]; listed as S-CM-G[^125 I]TNH2
  labelling of the hippocampus: not labelled
5-HT1C sites [2]
  labelling of the choroid plexus: not labelled
5-HT1A sites [3]; listed as S--CM-G[^125I]TNH2
  labelling of the hippocampus: not the hippocampus
5-HT1A sites [3]; listed as S-CM-G[^125 I]TNH2
  labelling of the hippocampus: not labelled
Rat central receptors
  labelling / specific retention on rat brain sections: retained specifically on rat brain sections
5-HT1D sites [4]; 0.03 nM
  labelling of the substantia nigra: labels the substantia nigra
5-HT1D sites [4]; FIG. 6, 0.03 nM
  labelling of St, SD and SN: labelled
5-HT1D sites [4]; conclusion
  marker for 5-HT1D sites: marker for sites with a high affinity for serotonin of the 1D type
5-HT1D receptors; conclusion
  labelling of 5-HT1D receptors of the human brain in vitro: labels the 5-HT1D receptors of the human brain in vitro
5-HT1D receptors; postmortem, treated as monkey sections
  labelling of the locus niger: strong labelling
5-HT1A sites [5]
  labelling of the Ammon's horn: weak labelling
Serotonin receptors; 5-HT1B and 5-HT1D vs 5-HT1A and 5-HT1C
  preferential affinity among 5-HT1 sites: preferential affinity for the 5-HT1B and 5-HT1D sites compared with the 5-HT1A and 5-HT1C sites
Serotonin receptors; compared with other ligands
  ligand labelling of the 5-HT1D sites: only ligand to label the 5-HT1D sites
5-HT1B sites; FIG. 5, 0.03 nM
  labelling of St, SD and SN: labelled
5-HT1B sites; anterior region, 0.03 nM
  labelling of the striatum: labelled
5-HT1B sites; conclusion
  marker specificity for 5-HT1B sites: specific marker for binding sites with a high affinity for serotonin of the 1B type
5-HT1B sites; mesencephalic region, 0.03 nM
  labelling of the substantia nigra and the dorsal subiculum: intense labelling
[6]
  toxicity: No toxicity was observed
[7]; 10 minutes
  labelling of the vascular system 10 minutes after the injection: the labelling decreases in the vascular system, except for the heart and the cerebral vascular system
[7]; gamma camera
  initial distribution of labelling: very quickly observed to diffuse into the heart, the entire vascular system and the liver
[7]; longer term
  labelling of the bladder: increases in the longer term
  labelling of the heart: remaining labelled for a fairly long time
[8]; intracardiac injection (mice 200 μl, guinea-pigs 1.5 ml)
  labelling of brain sections after in vivo injection: no labelling
[8]
  passage across the blood-brain barrier: does not cross the blood-brain barrier
[8]; listed as S--CM-G[125]TNH2
  passage across the blood-brain barrier: does not pass through the blood-brain barrier
[9]
  selectivity vs receptors not of the 5-HT type: high selectivity without binding to other receptors which are not of the 5-HT type
5-HT1D sites [10]; 0.02 nM S-CM-G[125I]TNH2
  labelling of the substantia nigra: virtually exclusive labelling of the substantia nigra
5-HT1D sites [10]; 0.02 nM S-CM-G[125I]TNH2, listed as [^125 I]S-CM-GTNH2
  labelling of the substantia nigra: exclusive labelling of the substantia nigra
5-HT1D sites [10]
  binding to / marker for 5-HT1D sites: marker for 5-HT1D receptors
5-HT1D sites [10]; listed as S--CM-G[^125 I9 TNH2
  binding to / marker for 5-HT1D sites: specific for the 5-HT1D sites
5-HT1D sites [10]; listed as S--CM-G[^125 I ]TNH2
  binding to / marker for 5-HT1D sites: binds to the 5-HT1D sites
5-HT1C sites [11]
  labelling of the choroid plexus: not labelled
